In US20250312327A1, “COMPOSITION FOR COMBINATION THERAPY, COMPRISING 2,3,5-SUBSTITUTED THIOPHENE COMPOUND” (PHAROS IBIO CO., LTD, priority 2021, published 2025):
Like-named read-outs stand apart in the source and are kept apart here.

Key:
Type in all cases: cell-based
THP-1 leukemia cell line = assay: CellTiter-Glo assay, drug administered alone; conditions: Homo sapiens, THP-1, PHI-101 administered alone
U937 leukemia cell line [1] = assay: CellTiter-Glo assay, drug administered alone; conditions: Homo sapiens, U-937, PHI-101 administered alone
[2] = test system: MolM13 leukemia cell line; assay: CellTiter-Glo assay, drug administered alone; conditions: Homo sapiens; PHI-101 administered alone; MolM 13; Table 7; read-out: IC50 PHI-101
Experimental: The first and second tests were performed in triplicate on the above cell lines while reducing the concentration of venetoclax by half each time from 100 μM, and the third test was performed in triplicate on the BDCM cell line while reducing the concentration of venetoclax by half each time from 100 μM, and performed in triplicate on HL-60, MolM13, MolM14, and MV4-11 cell lines while reducing the concentration of venetoclax by half each time from 2.5 μM. The fourth test was performed in triplicate on HL-60, MolM13, MolM14, and MV4-11 cell lines while reducing the concentration by half each time from 2.5 μM.
Specifically, in the first and second tests, a 10-fold diluted solution was prepared by dissolving 50 μL of 10 mM venetoclax in 450 μL of solvent. 250 μL of the solution was serially diluted ½, an 8E-tube was filled with 250 μL of each dilution, and 80 μL of each cell line was dispensed into each well of a 96-well plate. Thereafter, 10 μL of each cell line was dispensed using JANUS and incubated for 72 hours under CO2. Celltiter-Glo assay was performed and then IC50 was calculated.
In the third test, for the BCDM cell line, a 10-fold diluted solution was prepared by dissolving 15 μL of 10 mM venetoclax in 135 μL of solvent. 100 μL of the solution was serially diluted ½, an 8E-tube was filled with 100 μL of each dilution, and the cell line was dispensed into a 96-well plate. Thereafter, 25 μL of the cell line was dispensed using JANUS and incubated for 72 hours under CO2. Celltiter-Glo assay was performed and then IC50 was calculated. Meanwhile, for the HL-60, MolM13, MolM14, and MV4-11 cell lines, a 10-fold diluted solution was prepared by dissolving […] of solvent. 200 μL of the solution was serially diluted ½, an 8E-tube was filled with 200 μL of each dilution, and each of the cell lines was dispensed into a 96-well plate. Thereafter, 60 μL of each cell line was dispensed using JANUS and incubated for 72 hours under CO2. Celltiter-Glo assay was performed and then IC50 was calculated.
The fourth test was performed on HL-60, MolM13, MolM14, and MV4-11 cell lines in the same manner as the third test.
(§1) The first and second tests were performed in triplicate on the above cell lines while reducing the concentration of 5-azacytidine by half each time from 100 μM. Specifically, in the first and second tests, a 10-fold diluted solution was prepared by dissolving 15 μL of 20 mM 5-azacytidine in 285 μL of solvent. 250 μL of the solution was serially diluted ½, an 8E-tube was filled with 250 μL of each dilution, and 80 μL of each cell line (3,000 cells) was dispensed into each well of a 96-well plate. Thereafter, 10 μL of each cell line was dispensed using JANUS and incubated for 72 hours under CO2. Celltiter-Glo assay was performed and then IC50 was calculated.
as §1, with “cytarabine” for “5-azacytidine”, “50,000” for “100”, “10” for “15”, “50” for “20”, “490” for “285”

U937 leukemia cell line [3] = assay: CellTiter-Glo assay, co-administration of PHI-101 and anticancer drug; conditions: PHI-101 at the minimum concentration, 5-azacytidine co-administration test
Experimental: (§2) Specifically, in the first and second tests, a 10-fold diluted solution was prepared by dissolving […] of solvent. 500 μL of the solution was serially diluted ½, an 8E-tube was filled with 500 μL of each dilution, and 90 μL of each cell line was dispensed into each well of a 96-well plate. Thereafter, 10 μL of each cell line was dispensed using JANUS and pretreated for 30 minutes under CO2. […] Next, the cells were incubated for 72 hours under CO2, Celltiter-Glo assay was performed and then IC50 was calculated.
(§3) In the third and fourth tests, a 10-fold diluted solution was prepared by dissolving 5 μL of 50 mM PHI-101 in 495 μL of solvent. 250 μL of the solution was serially diluted ½, an 8E-tube was filled with 250 μL of each dilution, and 60 μL of each cell line was dispensed into each well of a 96-well plate. Thereafter, 10 μL of each cell line was dispensed using JANUS and pretreated for 30 minutes under CO2. […] Next, the cells were incubated for 72 hours under CO2, Celltiter-Glo assay was performed and then IC50 was calculated.
(§4) Specifically, in the first and second tests, for BDCM, HL-60, THP-1, and U937 cell lines, a 10-fold diluted solution was prepared by dissolving 5 μL of 50 mM PHI-101 in 495 μL of solvent. […] Next, the cells were incubated for 72 hours under CO2, Celltiter-Glo assay was performed and then IC50 was calculated.

HL-60 leukemia cell line [4] = assay: as above; conditions: PHI-101 at the minimum concentration, 5-azacytidine co-administration test
Experimental: as §2, §3, §4

[5] = test system: MV4-11 leukemia cell line; assay: CellTiter-Glo assay, drug administered alone; conditions: Homo sapiens, PHI-101 administered alone, Table 7
[6] = test system: MolM14 leukemia cell line; assay: CellTiter-Glo assay, drug administered alone; conditions: Homo sapiens, MOLM-14, PHI-101 administered alone
HL-60 leukemia cell line [7] = assay: CellTiter-Glo assay, drug administered alone; conditions: Homo sapiens, HL-60, PHI-101 administered alone
BDCM leukemia cell line = assay: CellTiter-Glo assay, drug administered alone; conditions: PHI-101 administered alone
[8] = Table 7, read-out: IC50 PHI-101
[9] = Table 10, read-out: IC50 PHI-101
[10] = Table 13, read-out: IC50 PHI-101

IC50 (THP-1 leukemia cell line; [8]): 1530 nM
IC50 (THP-1 leukemia cell line; [9]): 735 nM
IC50 (THP-1 leukemia cell line; [10]): 735 nM
IC50 (U937 leukemia cell line [1]; [8]): 1250 nM
IC50 (U937 leukemia cell line [1]; [9]): 3400 nM
IC50 (U937 leukemia cell line [1]; [10]): 850 nM
IC50 [2]: 1 nM
IC50 [5]: 1 nM
IC50 ([6]; Table 7): 8 nM
IC50 ([6]; Table 10): 8 nM
IC50 ([6]; Table 13): 4 nM
IC50 (HL-60 leukemia cell line [7]; [8]): 2080 nM
IC50 (HL-60 leukemia cell line [7]; [9]): 2200 nM
IC50 (HL-60 leukemia cell line [7]; [10]): 1100 nM
IC50 (BDCM leukemia cell line; [8]): 950 nM
IC50 (BDCM leukemia cell line; [9]): 230 nM
IC50 (BDCM leukemia cell line; [10]): 230 nM
Structure (SMILES): NC(=O)Nc1cc(C#Cc2cccc(F)c2)sc1C(=O)N[C@H]1CCCNC1 [PHI-101, (S)-5-((3-fluorophenyl)ethynyl)-N-(piperidin-3-yl)-3-ureido-thiophene-2-carboxamide]
inhibitory activity (U937 leukemia cell line [3]): ≤ 50%
inhibitory activity (HL-60 leukemia cell line [4]): ≤ 50%
